The subject of the assay is balloon-denuded rats (coronary restenosis model). Briefly: Treatment of experimental rat model of coronary restenosis. The format is in vivo, Sprague-Dawley rats. The note with it: 0.3 mg kg^-1 docetaxel i.v. on day 0 and 5, arteries collected day 14, n=6. The procedure:
Sprague-Dawley rats following angioplasty-induced arterial denudation were injected intravenously with 1 mL of 5 mg mL^−1 docetaxel-loaded PNPs in 10% sucrose at a docetaxel dose of 0.3 mg kg^−1 on day 0 and day 5. As controls, animals receiving PBS, free docetaxel, and empty PNPs were prepared. On day 14, animals were euthanized with an overdose of ketamine-xylazine cocktail and perfused with PBS and 4% paraformaldehyde (PFA) at a pressure of 120-140 mm Hg. Segments of left and right carotid arteries were carefully dissected out, and the PFA-fixed carotid arteries were embedded with Tissue-Tek OCT compound (VWR International) in a tissue base mold and slowly submerged into pre-chilled 2-methyl butane until frozen completely. The frozen tissue block was then immediately stored at −80° C. until sectioning. Serial sectioning (15 μm per section) was performed with a Cyrotome cryostat machine (Leica), and the tissue sections were placed on polylysine-treated glass slides. Tissue sections on slides were dried at room temperature for 30 min before staining. For immunohistochemistry, frozen sections on slides were first washed with PBS to remove residual OCT medium and then subjected to standard hematoxylin and eosin (H&E) staining. Areas of intima and media were analyzed using Image J. Luminal obliteration is defined as the intima area/the area within the internal elastic lamina. […]

`CC(=O)O[C@@]12CO[C@@H]1C[C@H](O)[C@@]1(C)C(=O)[C@H](O)C3=C(C)[C@@H](OC(=O)[C@H](O)[C@@H](NC(=O)OC(C)(C)C)c4ccccc4)C[C@@](O)([C@@H](OC(=O)c4ccccc4)[C@H]21)C3(C)C` [free docetaxel, docetaxel]: the “intima-to-media ratio (I/M)” value is given as 0.76±0.18 and the luminal obliteration came to 33.6%.
